Assay results as given in the supplement of paper PMC10307832.

Columns and labels:
Experiment in all cases: relative viability (nuclei count vs DMSO), 5 days (fraction); higher = more cells survive
XMD8-85 + OSI-027 = compound: CN1CCN(CC1)C2=CC(=C(C=C2)NC3=NC=C4C(=N3)N(C5=CC=CC=C5C(=O)N4C)C)OC [XMD8-85] + COc1cccc2cc(-c3nc([C@H]4CC[C@H](C(=O)O)CC4)n4ncnc(N)c34)[nH]c12 [OSI-027] (partner 0.5 µM)
Summary of the method: (§1)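 A single step with final 0.05% Triton X-100, 1% formaldehyde and 1 ug/ml Hoechst fixed the cells and stained nuclei 5 days after treatment. Lung cancer cell lines in 1536-well plates had been treated by pin tool the day after seeding with one drug alone or a fixed anchor-drug dose plus five library-drug doses (not always all listed) in √10 steps, and nuclei were counted on 4× images. Relative viability is the ratio of nuclei in treated wells to nuclei in vehicle wells, taken as the median of duplicate plates.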

XMD8-85 + Pictilisib = compound: CN1CCN(CC1)C2=CC(=C(C=C2)NC3=NC=C4C(=N3)N(C5=CC=CC=C5C(=O)N4C)C)OC [XMD8-85] + CS(=O)(=O)N1CCN(Cc2cc3nc(-c4cccc5[nH]ncc45)nc(N4CCOCC4)c3s2)CC1 [Pictilisib] (partner 1 µM)
Summary of the method: as §1

XMD8-85 + Linsitinib = compound: CN1CCN(CC1)C2=CC(=C(C=C2)NC3=NC=C4C(=N3)N(C5=CC=CC=C5C(=O)N4C)C)OC [XMD8-85] + C[C@]1(O)C[C@@H](c2nc(-c3ccc4ccc(-c5ccccc5)nc4c3)c3c(N)nccn32)C1 [Linsitinib] (partner 1 µM)
Summary of the method: as §1

XMD8-85 + Tozasertib = compound: CN1CCN(CC1)C2=CC(=C(C=C2)NC3=NC=C4C(=N3)N(C5=CC=CC=C5C(=O)N4C)C)OC [XMD8-85] + Cc1cc(Nc2cc(N3CCN(C)CC3)nc(Sc3ccc(NC(=O)C4CC4)cc3)n2)n[nH]1 [Tozasertib] (partner 0.1 µM)
Summary of the method: as §1

| Cell Line | relative viability (XMD8-85 + OSI-027; first compound 0.08 µM) | relative viability (XMD8-85 + OSI-027; first compound 0.253 µM) | relative viability (XMD8-85 + OSI-027; first compound 0.8 µM) | relative viability (XMD8-85 + OSI-027; first compound 2.53 µM) | relative viability (XMD8-85 + OSI-027; first compound 8 µM) | relative viability (XMD8-85 + Pictilisib; first compound 0.08 µM) | relative viability (XMD8-85 + Pictilisib; first compound 0.253 µM) | relative viability (XMD8-85 + Pictilisib; first compound 0.8 µM) | relative viability (XMD8-85 + Pictilisib; first compound 2.53 µM) | relative viability (XMD8-85 + Pictilisib; first compound 8 µM) | relative viability (XMD8-85 + Linsitinib; first compound 0.08 µM) | relative viability (XMD8-85 + Linsitinib; first compound 0.253 µM) | relative viability (XMD8-85 + Linsitinib; first compound 0.8 µM) | relative viability (XMD8-85 + Linsitinib; first compound 2.53 µM) | relative viability (XMD8-85 + Linsitinib; first compound 8 µM) | relative viability (XMD8-85 + Tozasertib; first compound 0.08 µM) | relative viability (XMD8-85 + Tozasertib; first compound 0.253 µM) | relative viability (XMD8-85 + Tozasertib; first compound 0.8 µM) | relative viability (XMD8-85 + Tozasertib; first compound 2.53 µM) | relative viability (XMD8-85 + Tozasertib; first compound 8 µM) |
| --- | --- | --- | --- | --- | --- | --- | --- | --- | --- | --- | --- | --- | --- | --- | --- | --- | --- | --- | --- | --- |
| NCI-H520 | 0.245 | 0.257 | 0.232 | 0.257 | 0.195 | 0.222 | 0.271 | 0.295 | 0.248 | 0.231 | 0.86 | 0.914 | 1.16 | 0.849 | 0.67 | 0.388 | 0.414 | 0.44 | 0.406 | 0.341 |
| NCI-H647 | 0.568 | 0.681 | 0.667 | 0.602 | 0.685 | 0.473 | 0.45 | 0.367 | 0.434 | 0.155 | 1.29 | 1.35 | 1.55 | 0.862 | 0.634 | 0.173 | 0.195 | 0.29 | 0.202 | 0.0891 |
| 201T | 0.88 | 0.824 | 0.398 | 0.367 | 0.493 | 0.635 | 0.677 | 0.723 | 0.746 | 0.556 | 1 | 1.05 | 0.994 | 1.05 | 1.01 | 0.964 | 0.975 |  | 0.808 | 0.771 |
| COR-L 105 | 0.6 |  | 0.589 | 0.512 | 0.324 | 0.429 | 0.415 | 0.359 | 0.353 | 0.303 | 0.913 | 1.02 | 0.779 | 0.902 | 0.372 | 0.405 | 0.363 | 0.338 | 0.377 | 0.26 |
| IA-LM |  |  |  |  |  | 0.342 | 0.187 | 0.334 | 0.193 | 0.143 | 0.385 | 0.563 | 0.562 | 0.393 | 0.166 |  |  |  |  |  |
| LCLC-97TM1 | 0.485 |  | 0.623 | 0.565 | 0.536 | 0.181 | 0.22 | 0.248 | 0.173 | 0.177 | 0.168 | 0.218 | 0.176 | 0.199 | 0.232 | 0.278 | 0.23 | 0.225 | 0.225 | 0.168 |
| NCI-H1944 | 0.391 | 0.442 | 0.461 | 0.514 | 0.297 | 0.326 | 0.332 | 0.351 | 0.333 | 0.307 | 1.1 | 1.26 | 1.25 | 1.44 | 1.04 | 0.27 | 0.277 | 0.264 | 0.256 | 0.21 |
| EPLC-272H | 0.282 | 0.251 | 0.266 | 0.305 | 0.27 |  | 0.324 | 0.318 | 0.327 | 0.267 |  | 1.24 | 1.02 | 1.2 | 0.912 | 0.294 | 0.241 | 0.557 | 0.281 | 0.25 |
| NCI-H2342 | 0.606 | 0.605 |  | 0.594 | 0.641 |  |  |  |  |  |  |  |  |  |  | 0.529 | 0.46 | 0.478 | 0.424 | 0.405 |
| NCI-H1648 | 0.248 | 0.268 |  |  | 0.228 |  |  |  |  |  |  |  |  |  |  | 0.438 | 0.394 |  |  | 0.324 |
| NCI-H1437 | 0.862 | 0.876 | 0.902 | 0.852 | 0.595 | 0.4 | 0.376 | 0.433 | 0.333 | 0.318 | 0.902 | 0.944 | 1.09 | 0.92 | 0.413 | 0.408 | 0.415 | 0.401 | 0.329 | 0.221 |
| LU99A | 0.264 | 0.31 | 0.306 | 0.33 | 0.258 | 0.32 | 0.302 | 0.339 | 0.367 | 0.33 | 0.451 | 0.566 | 0.545 | 0.531 | 0.459 | 0.281 | 0.257 | 0.252 | 0.253 | 0.239 |
| NCI-H1993 | 0.516 | 0.454 | 0.636 | 0.548 | 0.552 | 0.859 | 0.795 | 0.822 | 0.701 | 0.814 | 0.814 | 0.669 | 0.812 | 0.718 | 0.704 | 0.583 | 0.628 | 0.56 | 0.557 | 0.546 |
| NCI-H838 | 0.386 | 0.463 | 0.343 | 0.346 | 0.339 | 0.423 | 0.455 | 0.503 | 0.429 | 0.317 | 0.979 | 0.958 | 1.2 | 1 | 0.507 | 0.291 | 0.305 | 0.267 | 0.25 | 0.165 |
| NCI-H322M | 0.506 |  | 0.571 | 0.504 | 0.37 | 0.551 | 0.501 | 0.502 | 0.527 | 0.409 | 0.853 | 0.986 | 0.864 | 0.825 | 0.933 | 0.427 | 0.496 | 0.462 | 0.451 | 0.436 |
